Measured values: patent US20210113602A1, “USE OF 6-THIO-2'-DEOXYGUANOSINE (6-THIO-dG) TO TREAT MELANOMA” (The Board of Regents of the University of Texas System, priority 2018, published 2021)
Entries after “also recorded” stand apart in the source; their conditions may differ.

Assays:
[1] = system: NRAS mutant melanoma cells; test: ROS production, H2DCFDA fluorescence; type: cell-based, human; conditions: 1 μM for 7 days
Experimental: (§1) FIGS. 2a-h. […] (FIGS. 2a-c) NRASmut melanoma cells (FIG. 2a), BRAF-V600E/NRAS mutant cells derived from melanoma patients resistant to BRAF/MEK inhibitors (FIG. 2b), or non-transformed melanocytes and fibroblasts (FIG. 2c) were treated with 6-thio-dG for 7 days. Cell viability was measured by Alamar Blue assay and calculated relative to DMSO-treated cells. (FIG. 2d) NRASmut melanoma cells and non-transformed human fibroblasts were treated with 1 or 5 μM 6-thio-dG for 7 or 14 days. Cell death was assessed by PSVUe staining. Percent of apoptotic cells is shown. (FIG. 2e) Cells were treated with DMSO or 1 μM 6-thio-dG for 14 days and telomere length was assessed by Southern blotting of TRF. Mean TRF length expressed as kilobase pairs is indicated at the bottom. (FIGS. 2f-g) Cells were treated with 1 μM 6-thio-dG for 7 days. (FIG. 2f) ROS production was measured by H2DCFDA fluorescence and normalized to MSO treated cells. (FIG. 2g) DNA damage was assessed by γH2AX staining. Data represent average from three independent experiments±SEM. *p<0.05; **p<0.01; ***p<0.005 in unpaired Student's t-test. […] Tumor volume was measured and average tumor volume (n=4)±SEM was plotted vs. time.
Measurement of reactive oxygen species. General or mitochondrial specific ROS were measured by flow cytometry H2DCFDA or MitoSoxRed (Invitrogen, Waltham, Mass.) following manufacturer's specifications.

[2] = system: NRAS mutant melanoma cells; test: Mitochondrial ROS, MitoSox Red; type: cell-based, human; conditions: 1 μM 6-thio-dG for 7 days
Experimental: FIGS. 3a-g. Telomere dysfunction enhances oxidative stress leading to upregulation of an antioxidant program. (FIGS. 3a-d) NRASmut melanoma cells were transduced with TERT shRNA (FIG. 3a, FIG. 3c) or treated with 1 μM 6-thio-dG for 7 days (FIG. 3b, FIG. 3d). mRNA levels of the indicated genes were quantified by qRT-PCR (FIG. 3a, FIG. 3b). Mitochondrial superoxide production was measured by MitoSox Red fluorescence (FIG. 3c, FIG. 3d) and expressed as fluorescence relative to vector or DMSO controls. (FIG. 3e) NRASmut melanoma cells were treated with 1 μM of 6-thio-dG for the indicated times and SOD2 protein levels measured by Western blotting. (FIG. 3f) SOD2 was silenced using shRNA. Transduced M93-047 cells were treated with DMSO or 1 μM of 6-thio-dG and cell death was assessed by Annexin V/PI straining. (FIG. 3g) M93-047 cells were transduced with a SOD2 lentiviral construct or empty vector control (pLX304). Transduced cells were treated with increasing doses (1, 2.5 and 5 μM) of 6-thio-dG for 7 days and cell death was assessed. […]
FIGS. 4a-e. […] Cell death was assessed by Annexin V and PI staining. […] Cells were stained with Annexin V and PI and percent cell death was determined by flow cytometry. (FIGS. 4c-e) Cells were treated as in FIG. 4b and mitochondrial ROS levels were measured using Mitosox Red by FACS. […] P values were calculated using unpaired Student's t-test; * p<0.05; ***p<0.005. […]

[3] = system: NRASmut melanoma cells (WM3000 or M93-047) tumors; test: NRAS mutant melanoma xenograft tumors in NSG mice; type: in vivo; conditions: 2.5 mg/kg i.p. q.d.
Experimental: as §1, with “(FIGS. 2f-g) Cells were treated with 1 μM 6-thio-dG for 7 days.” left out, “staining.” for “staining. Data represent average from three independent experiments±SEM. *p<0.05; **p<0.01; ***p<0.005 in unpaired Student's t-test.”
green) and EtBr (dead cells; red) and imaged using an inverted microscope (4×; scale bar=250 μm). […] P values were calculated using unpaired Student's t-test. * p<0.05, **p<0.01, ***p<0.005, when comparing vehicle control vs. combination treatment groups. […] Kaplan Meier survival curves of mice treated for 14 days. p-values were calculated by Mantel-Cox logrank test; * p<0.05, **p<0.01, ***p<0.005. […]

[4] = system: NRAS mutant melanoma cells; test: Cell death by flow cytometry (PSVue or Annexin V/PI); type: cell-based
Experimental: (FIG. 2d) NRASmut melanoma cells and non-transformed human fibroblasts were treated with 1 or 5 μM 6-thio-dG for 7 or 14 days. Cell death was assessed by PSVUe staining. Percent of apoptotic cells is shown. […] (FIGS. 2f-g) Cells were treated with 1 μM 6-thio-dG for 7 days. […] Data represent average from three independent experiments±SEM. *p<0.05; **p<0.01; ***p<0.005 in unpaired Student's t-test.
(FIG. 3f) SOD2 was silenced using shRNA. Transduced M93-047 cells were treated with DMSO or 1 μM of 6-thio-dG and cell death was assessed by Annexin V/PI straining. (FIG. 3g) M93-047 cells were transduced with a SOD2 lentiviral construct or empty vector control (pLX304). Transduced cells were treated with increasing doses (1, 2.5 and 5 μM) of 6-thio-dG for 7 days and cell death was assessed. Data represent average from three independent experiments±SEM. *p<0.05; **p<0.01; ***p<0.005 in unpaired Student's t-test.
(FIG. 4a) NRASmut melanoma cells transduced with TERT shRNA were treated 7 days post infection with 5 μM Gamitrinib (Gam) for 48 h. Cell death was assessed by Annexin V and PI staining. (FIG. 4b) NRASmut melanoma cells and non-transformed fibroblasts were treated with 1 μM 6-thio-dG for 5 days. At day 5, culture medium was replaced and cells treated with 1 μM 6-thio-dG plus 5 μM Gam for two more days. Cells were stained with Annexin V and PI and percent cell death was determined by flow cytometry. […] Data represent average of three independent experiments ±SEM. P values were calculated using unpaired Student's t-test; * p<0.05; ***p<0.005.
(Supplementary FIG. 10a) NRASmut melanoma cells were treated with 6-thio-dG (1 μ) for 7 days total. At day 5, culture medium was replaced and cells were treated with 1 μM 6-thio-dG plus 1 mM Phenformin for two more days. Percent cell death was determined by flow cytometry following staining of cells with Annexin V and Propidium iodide. Data represent average of three independent experiments +/−SEM. *p<0.05 in unpaired Student's t-test.

Structure (SMILES): Nc1nc2c(ncn2[C@H]2C[C@H](O)[C@@H](CO)O2)c(=S)[nH]1 [6-thio-dG, 6-thio-2′-deoxy-guanosine]
- ROS levels [1]: increased levels
- mitochondrial ROS levels [2]: increased mitochondrial ROS levels
- tumor growth, single agent [3]: slowed the growth of tumors; also recorded: slowed, but did not completely abrogated tumor growth
- cell death ([4]; 1 or 5 μM for 7 or 14 days, PSVue staining): led to cell death
- apoptosis in SOD2 overexpressing cells ([4]; SOD2 lentiviral construct, 1, 2.5 and 5 μM 6-thio-dG): attenuated the apoptosis-inducing effects
- apoptosis in SOD2 depleted cells ([4]; SOD2 shRNA, 1 μM 6-thio-dG, M93-047, WM3000): enhanced the ability of 6-thio-dG to induce apoptosis
